Assay results taken from ChEMBL document CHEMBL4118122, “Identification and biological evaluation of thiazole-based inverse agonists of RORγt” (Bioorg Med Chem Lett, 2018).

Columns and labels:
[1] = target: T1, Nuclear receptor ROR-gamma (Homo sapiens, UniProt P51449); test: Inverse agonist activity at RORgammat in human whole blood assessed as reduction in IL17A production
T1 sequence (P51449 whole entry): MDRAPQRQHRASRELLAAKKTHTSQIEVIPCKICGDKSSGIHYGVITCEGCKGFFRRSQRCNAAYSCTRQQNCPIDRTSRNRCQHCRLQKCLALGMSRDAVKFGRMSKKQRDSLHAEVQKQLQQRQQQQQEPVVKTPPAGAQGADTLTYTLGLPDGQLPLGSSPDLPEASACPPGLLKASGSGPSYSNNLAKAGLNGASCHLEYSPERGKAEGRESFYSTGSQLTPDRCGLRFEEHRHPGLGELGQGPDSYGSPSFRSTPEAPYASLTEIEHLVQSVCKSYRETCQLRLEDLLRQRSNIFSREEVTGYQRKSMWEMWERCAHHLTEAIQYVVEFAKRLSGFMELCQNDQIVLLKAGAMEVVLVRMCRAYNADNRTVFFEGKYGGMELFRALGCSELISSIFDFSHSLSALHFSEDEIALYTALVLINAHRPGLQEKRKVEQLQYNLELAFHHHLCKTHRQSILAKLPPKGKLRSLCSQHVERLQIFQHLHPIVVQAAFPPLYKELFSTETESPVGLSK

[2] = target: Beta-1 adrenergic receptor (Homo sapiens, UniProt P08588); test: Displacement of [3H](-)CGP 12177 from human beta1 adrenoceptor at 10 uM after 60 mins by scintillation counting analysis relative to control
[3] = target: Endothelin-1 receptor (Homo sapiens) (UniProt P25101); test: Displacement of [125I]-endothelin-1 from human recombinant ETA receptor at 10 uM after 120 mins by scintillation counting analysis relative to control
[4] = target: Neuromedin-K receptor (Homo sapiens) (UniProt P29371); test: Displacement of [3H]SR 142801 from human recombinant NK3 receptor at 10 uM after 120 mins by scintillation counting analysis relative to control
[5] = target: 5-hydroxytryptamine receptor 2B (Homo sapiens, UniProt P41595); test: Displacement of [125I]+/-DOI from human recombinant 5-HT2B receptor at 10 uM after 60 mins by scintillation counting analysis relative to control
[6] = target: Sodium-dependent noradrenaline transporter (Homo sapiens, UniProt P23975); test: Displacement of [3H]nisoxetine from recombinant human norepinephrine transporter at 10 uM after 120 mins by scintillation counting analysis relative to control
Rattus norvegicus = species on record: Rattus norvegicus; test: Binding affinity to rat GABA receptor at 1 uM after 60 mins by agonist radioligand binding assay relative to control
[7] = target: Muscarinic acetylcholine receptor M1 (Homo sapiens) (UniProt P11229); test: Displacement of […] from human recombinant M1 receptor at 1 uM after 60 mins by scintillation counting analysis relative to control
[8] = target: 5-hydroxytryptamine receptor 1A (Homo sapiens) (UniProt P08908); test: Displacement of [3H]8-OH-DPAT from recombinant human 5-HT1A receptor at 1 uM after 60 mins by scintillation counting analysis relative to control
[9] = target: 5-hydroxytryptamine receptor 1B (Rattus norvegicus) (UniProt P28564); test: Displacement of [125I]-CYP from rat brain 5-HT1B receptor at 1 uM after 120 mins by scintillation counting analysis relative to control
[10] = target: 5-hydroxytryptamine receptor 7 (Homo sapiens, UniProt P34969); test: Displacement of [3H]LSD from human recombinant 5-HT7 receptor at 1 uM after 120 mins by scintillation counting analysis relative to control
[11] = target: Vasoactive intestinal polypeptide receptor 1 (Homo sapiens) (UniProt P32241); test: Displacement of [125I]VIP from human recombinant VPAC1 receptor at 1 uM after 60 mins by scintillation counting analysis relative to control
[12] = target: Sodium-dependent dopamine transporter (Homo sapiens) (UniProt Q01959); test: Displacement of [3H][…] from recombinant human dopamine transporter at 1 uM after 120 mins by scintillation counting analysis relative to control
Adenosine receptor A2a = Adenosine receptor A2a (Homo sapiens, UniProt P29274); test: Displacement of [3H]-CGS 21680 from human recombinant adenosine A2A receptor after 120 mins by scintillation counting analysis
Endothelin-1 receptor = Endothelin-1 receptor (Homo sapiens, UniProt P25101); test: Displacement of [125I]-endothelin-1 from human recombinant ETA receptor after 120 mins by scintillation counting analysis
Neuromedin-K receptor = Neuromedin-K receptor (Homo sapiens, UniProt P29371); test: Displacement of [3H]SR 142801 from human recombinant NK3 receptor after 120 mins by scintillation counting analysis
Nociceptin receptor = Nociceptin receptor (Homo sapiens, UniProt P41146); test: Displacement of [3H]nociceptin from human recombinant NOP receptor after 60 mins by scintillation counting analysis
[13] = target: 5-hydroxytryptamine receptor 1A (Homo sapiens, UniProt P08908); test: Displacement of [3H]8-OH-DPAT from recombinant human 5-HT1A receptor after 60 mins by scintillation counting analysis
[14] = target: Vasoactive intestinal polypeptide receptor 1 (Homo sapiens, UniProt P32241); test: Displacement of [125I]VIP from human recombinant VPAC1 receptor after 60 mins by scintillation counting analysis
[15] = target: Tyrosine-protein kinase JAK3 (Homo sapiens) (UniProt P52333); test: Inhibition of recombinant GST-tagged human JAK3 catalytic domain (781 to 1124 residues) expressed in baculovirus expression system at 10 uM in presence of ATP relative to control
Cytochrome P450 2C8 = target: T2, Cytochrome P450 2C8 (Homo sapiens, UniProt P10632); test: Inhibition of CYP2C8 (unknown origin); type: ADME
T2 sequence (P10632 whole entry): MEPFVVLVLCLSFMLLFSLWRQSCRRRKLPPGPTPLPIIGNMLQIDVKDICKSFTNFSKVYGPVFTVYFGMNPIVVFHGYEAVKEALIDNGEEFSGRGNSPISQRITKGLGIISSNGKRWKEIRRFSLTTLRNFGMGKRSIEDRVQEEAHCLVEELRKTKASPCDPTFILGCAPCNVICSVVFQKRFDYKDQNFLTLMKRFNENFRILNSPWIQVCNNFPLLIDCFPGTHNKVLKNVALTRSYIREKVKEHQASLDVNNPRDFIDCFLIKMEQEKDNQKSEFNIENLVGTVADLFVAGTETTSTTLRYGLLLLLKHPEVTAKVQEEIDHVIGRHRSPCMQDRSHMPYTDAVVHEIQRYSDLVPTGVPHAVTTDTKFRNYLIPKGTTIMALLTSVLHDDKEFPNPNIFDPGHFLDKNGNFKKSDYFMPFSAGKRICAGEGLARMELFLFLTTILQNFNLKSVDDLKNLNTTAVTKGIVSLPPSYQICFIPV

[16] = AUC (0 to infinity) in Sprague-Dawley rat at 1 mg/kg, iv; type: ADME, organism-based; parameters: dose 1 mg/kg, time infinity, route intravenous; conditions: in vivo
[17] = target: Protein kinase C beta type (Homo sapiens) (UniProt P05771); test: Inhibition of PKCbeta1 (unknown origin) at 10 uM in presence of ATP relative to control

5-hydroxytryptamine receptor 2B, sequence (P41595 whole entry): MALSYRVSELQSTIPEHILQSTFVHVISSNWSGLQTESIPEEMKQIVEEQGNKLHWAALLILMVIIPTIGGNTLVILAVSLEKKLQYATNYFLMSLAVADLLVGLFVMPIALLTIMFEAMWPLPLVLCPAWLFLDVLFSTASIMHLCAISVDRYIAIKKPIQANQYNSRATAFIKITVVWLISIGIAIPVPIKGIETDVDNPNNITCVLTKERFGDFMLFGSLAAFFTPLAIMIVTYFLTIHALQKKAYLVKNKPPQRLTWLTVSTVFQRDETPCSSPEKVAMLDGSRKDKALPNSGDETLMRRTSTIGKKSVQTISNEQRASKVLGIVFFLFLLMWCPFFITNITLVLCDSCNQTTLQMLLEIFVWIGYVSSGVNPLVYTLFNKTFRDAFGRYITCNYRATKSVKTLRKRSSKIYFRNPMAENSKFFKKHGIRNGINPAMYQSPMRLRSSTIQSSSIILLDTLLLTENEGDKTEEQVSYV
5-hydroxytryptamine receptor 1B (Rattus norvegicus), sequence (P28564 whole entry): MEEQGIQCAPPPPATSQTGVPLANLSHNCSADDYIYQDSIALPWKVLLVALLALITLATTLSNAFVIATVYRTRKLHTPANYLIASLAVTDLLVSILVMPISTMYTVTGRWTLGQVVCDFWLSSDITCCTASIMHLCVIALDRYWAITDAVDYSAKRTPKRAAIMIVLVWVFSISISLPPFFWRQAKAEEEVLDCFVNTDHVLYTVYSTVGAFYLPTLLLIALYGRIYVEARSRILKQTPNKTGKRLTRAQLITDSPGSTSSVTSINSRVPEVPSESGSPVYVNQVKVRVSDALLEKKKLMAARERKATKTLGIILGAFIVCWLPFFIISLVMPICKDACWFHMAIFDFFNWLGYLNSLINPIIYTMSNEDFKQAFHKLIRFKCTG
Muscarinic acetylcholine receptor M1 (Homo sapiens), sequence (P11229 whole entry): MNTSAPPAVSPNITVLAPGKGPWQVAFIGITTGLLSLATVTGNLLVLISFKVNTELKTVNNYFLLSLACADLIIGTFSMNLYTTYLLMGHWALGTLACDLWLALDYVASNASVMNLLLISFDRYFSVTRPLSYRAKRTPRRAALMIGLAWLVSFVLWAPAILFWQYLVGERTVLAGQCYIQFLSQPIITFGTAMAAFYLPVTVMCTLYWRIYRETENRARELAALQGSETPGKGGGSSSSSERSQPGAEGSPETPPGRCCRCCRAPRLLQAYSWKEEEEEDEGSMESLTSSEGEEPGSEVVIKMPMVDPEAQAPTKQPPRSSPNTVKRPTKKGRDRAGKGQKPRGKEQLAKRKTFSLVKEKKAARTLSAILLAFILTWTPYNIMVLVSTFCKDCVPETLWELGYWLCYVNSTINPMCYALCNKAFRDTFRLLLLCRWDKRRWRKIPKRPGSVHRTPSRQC
Sodium-dependent noradrenaline transporter, sequence (P23975 whole entry): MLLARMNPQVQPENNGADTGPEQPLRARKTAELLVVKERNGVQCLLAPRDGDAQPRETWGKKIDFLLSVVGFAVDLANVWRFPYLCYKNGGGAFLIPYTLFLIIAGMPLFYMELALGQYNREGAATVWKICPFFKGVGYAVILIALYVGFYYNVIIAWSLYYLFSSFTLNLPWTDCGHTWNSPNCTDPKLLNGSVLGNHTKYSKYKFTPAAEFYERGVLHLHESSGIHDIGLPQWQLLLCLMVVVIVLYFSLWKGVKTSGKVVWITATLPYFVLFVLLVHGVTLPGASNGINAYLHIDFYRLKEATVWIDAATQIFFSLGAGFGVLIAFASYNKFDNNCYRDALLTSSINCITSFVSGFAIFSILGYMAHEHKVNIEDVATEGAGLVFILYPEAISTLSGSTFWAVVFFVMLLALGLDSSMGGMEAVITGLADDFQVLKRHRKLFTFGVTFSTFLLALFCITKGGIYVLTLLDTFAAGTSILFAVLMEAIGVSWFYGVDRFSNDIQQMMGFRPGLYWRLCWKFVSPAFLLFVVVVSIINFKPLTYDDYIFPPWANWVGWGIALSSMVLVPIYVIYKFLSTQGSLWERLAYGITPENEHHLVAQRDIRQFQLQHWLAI
5-hydroxytryptamine receptor 1A (Homo sapiens), sequence (P08908 whole entry): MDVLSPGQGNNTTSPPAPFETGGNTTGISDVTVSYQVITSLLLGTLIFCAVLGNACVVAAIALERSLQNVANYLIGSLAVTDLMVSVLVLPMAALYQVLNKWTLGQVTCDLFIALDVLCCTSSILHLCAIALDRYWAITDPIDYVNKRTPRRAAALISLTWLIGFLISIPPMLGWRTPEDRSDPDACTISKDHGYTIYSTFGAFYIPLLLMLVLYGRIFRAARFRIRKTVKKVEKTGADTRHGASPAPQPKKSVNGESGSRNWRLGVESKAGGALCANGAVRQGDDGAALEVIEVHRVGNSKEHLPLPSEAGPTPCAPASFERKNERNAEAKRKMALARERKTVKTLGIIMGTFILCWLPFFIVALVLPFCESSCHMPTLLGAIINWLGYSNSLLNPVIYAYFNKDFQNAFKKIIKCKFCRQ
5-hydroxytryptamine receptor 1A, sequence (P08908 whole entry): as above
Endothelin-1 receptor (Homo sapiens), sequence (P25101 whole entry): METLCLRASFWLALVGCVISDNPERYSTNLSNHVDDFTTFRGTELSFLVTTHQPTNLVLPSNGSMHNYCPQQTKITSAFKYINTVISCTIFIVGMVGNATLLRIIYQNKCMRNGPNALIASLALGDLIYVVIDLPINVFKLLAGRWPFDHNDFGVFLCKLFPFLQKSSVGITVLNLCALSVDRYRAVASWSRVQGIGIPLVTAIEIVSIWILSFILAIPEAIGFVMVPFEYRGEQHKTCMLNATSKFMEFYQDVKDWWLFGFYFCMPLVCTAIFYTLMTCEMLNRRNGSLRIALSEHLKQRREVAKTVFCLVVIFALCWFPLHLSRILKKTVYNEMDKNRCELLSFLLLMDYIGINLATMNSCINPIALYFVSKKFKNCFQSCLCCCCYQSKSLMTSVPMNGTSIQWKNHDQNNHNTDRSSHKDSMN
Endothelin-1 receptor, sequence (P25101 whole entry): as above
Adenosine receptor A2a, sequence (P29274 whole entry): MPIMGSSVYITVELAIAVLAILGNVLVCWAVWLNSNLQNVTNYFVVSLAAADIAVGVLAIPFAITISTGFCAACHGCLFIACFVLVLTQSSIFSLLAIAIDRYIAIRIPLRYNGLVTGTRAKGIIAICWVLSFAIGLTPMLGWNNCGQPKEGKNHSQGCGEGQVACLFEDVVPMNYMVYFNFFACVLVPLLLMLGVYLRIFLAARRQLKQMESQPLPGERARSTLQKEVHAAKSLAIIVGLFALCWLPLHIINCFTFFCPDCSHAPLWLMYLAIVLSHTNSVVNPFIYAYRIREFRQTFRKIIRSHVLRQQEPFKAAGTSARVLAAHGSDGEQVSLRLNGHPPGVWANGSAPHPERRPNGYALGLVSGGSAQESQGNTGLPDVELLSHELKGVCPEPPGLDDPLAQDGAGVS
5-hydroxytryptamine receptor 7, sequence (P34969 whole entry): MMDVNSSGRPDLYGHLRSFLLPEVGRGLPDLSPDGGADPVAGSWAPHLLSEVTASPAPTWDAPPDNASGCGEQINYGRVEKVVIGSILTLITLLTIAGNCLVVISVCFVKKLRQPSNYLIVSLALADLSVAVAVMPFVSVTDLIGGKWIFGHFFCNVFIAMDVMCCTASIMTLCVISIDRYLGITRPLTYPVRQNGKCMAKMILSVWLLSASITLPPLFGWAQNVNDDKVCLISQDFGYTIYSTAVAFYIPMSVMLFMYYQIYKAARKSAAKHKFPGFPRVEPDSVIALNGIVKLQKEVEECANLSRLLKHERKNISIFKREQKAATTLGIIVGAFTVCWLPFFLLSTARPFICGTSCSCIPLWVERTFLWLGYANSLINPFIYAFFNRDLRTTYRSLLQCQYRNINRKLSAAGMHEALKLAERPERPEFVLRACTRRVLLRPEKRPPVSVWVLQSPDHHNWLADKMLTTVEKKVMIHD
Tyrosine-protein kinase JAK3 (Homo sapiens), sequence (P52333 whole entry, the tested form may be a part): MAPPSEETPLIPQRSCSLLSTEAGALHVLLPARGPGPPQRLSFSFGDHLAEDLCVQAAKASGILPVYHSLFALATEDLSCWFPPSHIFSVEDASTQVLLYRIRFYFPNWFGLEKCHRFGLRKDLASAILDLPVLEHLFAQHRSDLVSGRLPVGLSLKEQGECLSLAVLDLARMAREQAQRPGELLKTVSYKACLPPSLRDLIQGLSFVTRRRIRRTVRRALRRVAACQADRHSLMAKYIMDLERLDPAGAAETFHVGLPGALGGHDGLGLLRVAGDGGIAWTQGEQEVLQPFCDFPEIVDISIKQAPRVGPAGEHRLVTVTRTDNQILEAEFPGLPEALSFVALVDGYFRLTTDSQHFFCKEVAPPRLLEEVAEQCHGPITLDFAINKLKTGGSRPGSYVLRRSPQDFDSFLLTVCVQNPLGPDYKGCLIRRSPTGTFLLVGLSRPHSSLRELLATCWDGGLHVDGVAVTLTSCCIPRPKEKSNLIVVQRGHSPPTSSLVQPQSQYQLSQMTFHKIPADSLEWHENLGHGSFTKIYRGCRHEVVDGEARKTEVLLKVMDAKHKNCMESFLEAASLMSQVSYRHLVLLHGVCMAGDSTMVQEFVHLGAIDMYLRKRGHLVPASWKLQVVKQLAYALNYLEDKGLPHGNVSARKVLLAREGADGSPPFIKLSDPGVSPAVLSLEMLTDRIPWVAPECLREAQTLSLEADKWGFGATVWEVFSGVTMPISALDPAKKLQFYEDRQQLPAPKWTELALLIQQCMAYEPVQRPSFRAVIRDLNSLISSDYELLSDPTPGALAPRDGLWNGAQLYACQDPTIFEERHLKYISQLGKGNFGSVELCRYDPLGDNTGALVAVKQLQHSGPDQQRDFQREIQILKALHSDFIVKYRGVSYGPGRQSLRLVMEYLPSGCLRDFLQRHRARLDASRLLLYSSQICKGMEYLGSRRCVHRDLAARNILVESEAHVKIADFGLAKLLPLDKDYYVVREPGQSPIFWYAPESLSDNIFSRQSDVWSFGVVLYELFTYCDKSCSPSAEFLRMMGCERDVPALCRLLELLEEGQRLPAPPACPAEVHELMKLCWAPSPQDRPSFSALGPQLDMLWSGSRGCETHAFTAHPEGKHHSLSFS

CC(C)(C)NS(=O)(=O)c1ccc(-c2sc(C(=O)N[C@H]3C[C@H](C(=O)O)C3)nc2CC2CCCCC2)c2ccccc12
EC50 [1]: 82000 pM | inhibition [2]: 11% | inhibition [3]: < 10% | inhibition [4]: 32% | inhibition [5]: < 10% | inhibition [6]: 27% | inhibition (Rattus norvegicus): < 10% | inhibition [7]: < 10% | inhibition [8]: < 10% | inhibition [9]: < 10% | inhibition [10]: < 10% | inhibition [11]: < 10% | inhibition [12]: 18% | IC50 (Adenosine receptor A2a): 9200 pM | IC50 (Endothelin-1 receptor): 23 pM | IC50 (Neuromedin-K receptor): 8200 pM | IC50 (Nociceptin receptor): 980 pM | IC50 [13]: 430 pM | IC50 [14]: 470 pM | inhibition [15]: -3% | INH (Cytochrome P450 2C8): 3.8 µM | AUC(0-inf) [16]: 325 ng·h/mL | inhibition [17]: -2%
